The subject of experiment [1] is Human trabecular meshwork (TM) cells. Description: PGE2 production (RIA) in human trabecular meshwork cells. Format: cell-based. The following applies: 1 h at 37° C., BK 100 nM or 1 μM, fluprostenol 1 μM, non-peptide agonists 1 μM or 10 μM, FIG. 6. Here is the method:
The ability of BK agonists to stimulate prostaglandin E2 (PGE2) production was examined as follows. Human trabecular meshwork (TM) cells were seeded in culture plates and allowed to reach confluence. […] Fluprostenol was used as a positive control. After this time the assay was terminated by placing the assay plates on ice and by the addition of 100 μL of a cell-lysis reagent supplied with the PGE2 radioimmunoassay (RIA) kit (Amersham Pharmacia Biotech, Arlington Heights, Ill.). All reagents and standards supplied in the RIA kit were prepared and the RIA performed according to the manufacturer's instructions. Assay buffer, diluted prostaglandin E2 (PGE2) standard and supernatant from the cell-based experiment (diluted 1:100 v/v) were then pipetted into appropriate tubes as specified in the kit instructions. […]
After this incubation, all tubes were placed in an ice-bath and 1 ml cold precipitating reagent supplied in the kit was added to the tubes, the content mixed and incubated for 25 min at 4° C. […] The supernatants of all tubes were decanted as specified in the kit instructions and the RIA samples analyzed on a gamma-counter. The levels of PGE2 generated by the test agent were then quantified in comparison with the PGE2-standard curve. Dose-response data for the test agent were constructed and the potency and intrinsic activity determined as described above for other assays.

Experiment [2] addresses T1, B2-receptors in h-CM cells (Homo sapiens, UniProt P30411).
T1 construct: B2-receptor proteins in h-TM, h-CM and h-NPE cells; endogenous in cells; host or cells: human trabecular meshwork (h-TM), human ciliary muscle (h-CM) and human non-pigmented ciliary epithelial (h-NPE) cells
T1 sequence (P30411 1-391): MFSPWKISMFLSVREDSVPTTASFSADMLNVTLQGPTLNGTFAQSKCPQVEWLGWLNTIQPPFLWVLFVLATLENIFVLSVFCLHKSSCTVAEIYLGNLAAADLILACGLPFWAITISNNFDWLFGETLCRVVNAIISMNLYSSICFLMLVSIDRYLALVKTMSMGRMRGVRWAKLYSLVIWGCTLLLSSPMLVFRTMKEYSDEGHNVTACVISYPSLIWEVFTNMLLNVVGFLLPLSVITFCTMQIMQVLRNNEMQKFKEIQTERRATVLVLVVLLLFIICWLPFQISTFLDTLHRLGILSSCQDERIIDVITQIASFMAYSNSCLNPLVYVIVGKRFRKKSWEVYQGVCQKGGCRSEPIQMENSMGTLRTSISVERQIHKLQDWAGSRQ
Description: [Ca2+]i mobilization (FLIPR) in h-CM cells, agonist mode. Format: cell-based. The following applies: read-out: Intrinsic Activity (Emax, % max relative to BK). Here is the method:
(§1) On the day of the experiment, one vial of FLIPR Calcium Assay Kit dye is re-suspended in 50 mL of a FLIPR buffer consisting of Hank's Balanced Salt Solution (HBSS), 20 mM HEPES, and 2.5 mM probenecid, pH 7.4. Cells are loaded with the calcium-sensitive dye by addition of an equal volume (50 μL) to each well of the 96-well plate and incubated with dye for 1 h at 23° C. After this time, the test compound plate and cell plate are placed in the FLIPR instrument. At the beginning of an experimental run, a signal test is performed to check the basal fluorescence signal from the dye-loaded cells and the uniformity of the signal across the plate. The basal fluorescence is adjusted between 8000-12000 counts by modifying the exposure time, the camera F-stop, or the laser power. Instrument settings for a typical assay are the following: laser power 0.3-0.6 W, camera F-stop F/2, and exposure time 0.4 sec.
(§2) Fluorescence data are collected in real-time at 1.0 sec intervals for the first 60 secs and at 6.0 sec intervals for an additional 120 secs. […] The data are then analyzed using an automated, iterative, sigmoidal curve-fitting computer program to obtain the potency and intrinsic activities of the test agents as previously described (Sharif et al. J. Pharmacol. Exp. Ther. 286: 1094-1102, 1998; Sharif et al. Invest. Ophthalmol. Vis. Sci. 39:2562-2571, 1998; Kelly et al. J. Pharmacol. Exp. Ther. 304: 238-245, 2003). The sources of materials and reagents for such assays can be found in the references cited above.

Experiment [3] deals with T2, B2-receptors in h-NPE cells (Homo sapiens, UniProt P30411).
T2 construct: B2-receptor proteins in h-TM, h-CM and h-NPE cells; endogenous in cells; host or cells: human trabecular meshwork (h-TM), human ciliary muscle (h-CM) and human non-pigmented ciliary epithelial (h-NPE) cells
T2 sequence (P30411 1-391): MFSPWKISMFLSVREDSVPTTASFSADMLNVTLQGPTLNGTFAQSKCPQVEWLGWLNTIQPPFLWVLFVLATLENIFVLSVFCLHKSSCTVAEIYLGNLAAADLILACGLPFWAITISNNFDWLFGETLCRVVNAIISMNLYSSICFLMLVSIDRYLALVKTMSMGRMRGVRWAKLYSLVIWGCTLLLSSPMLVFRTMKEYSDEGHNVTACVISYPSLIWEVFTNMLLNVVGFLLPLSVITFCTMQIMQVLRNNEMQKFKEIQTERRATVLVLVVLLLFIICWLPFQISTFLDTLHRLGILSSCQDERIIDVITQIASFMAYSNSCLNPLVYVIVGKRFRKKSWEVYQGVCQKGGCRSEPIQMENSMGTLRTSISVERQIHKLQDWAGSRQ
The experiment in a line: [Ca2+]i mobilization (FLIPR) in h-NPE cells, agonist mode. Type of experiment: cell-based. The following applies: for Emax: read-out: Intrinsic Activity (Emax, % max relative to BK). As for the experimental part: as §1, §2

For experiment [4], the target named is T3, B2-receptors in h-TM cells (Homo sapiens, UniProt P30411).
T3 construct: B2-receptor proteins in h-TM, h-CM and h-NPE cells; endogenous in cells; host or cells: human trabecular meshwork (h-TM), human ciliary muscle (h-CM) and human non-pigmented ciliary epithelial (h-NPE) cells
T3 sequence (P30411 1-391): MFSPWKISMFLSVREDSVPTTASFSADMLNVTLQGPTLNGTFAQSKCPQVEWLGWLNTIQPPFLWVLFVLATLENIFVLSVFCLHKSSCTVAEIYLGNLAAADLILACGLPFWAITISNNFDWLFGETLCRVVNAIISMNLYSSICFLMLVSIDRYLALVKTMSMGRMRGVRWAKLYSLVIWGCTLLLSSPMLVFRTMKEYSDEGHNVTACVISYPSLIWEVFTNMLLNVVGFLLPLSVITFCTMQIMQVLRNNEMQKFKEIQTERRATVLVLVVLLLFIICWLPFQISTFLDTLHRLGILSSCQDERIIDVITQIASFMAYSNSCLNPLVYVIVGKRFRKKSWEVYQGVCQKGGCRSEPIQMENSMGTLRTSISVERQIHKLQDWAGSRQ
Description: [Ca2+]i mobilization (FLIPR) in h-TM cells, agonist mode. Type of experiment: cell-based. The following applies: for Emax: HTM, read-out: Intrinsic Activity (Emax, % max relative to BK). As for the experimental part: as §1, §2

For experiment [5], the target named is T4, BK B2-Receptor in h-NPE cells (Homo sapiens, UniProt P30411).
T4 construct: B2-receptor proteins in h-TM, h-CM and h-NPE cells; endogenous in cells; host or cells: human trabecular meshwork (h-TM), human ciliary muscle (h-CM) and human non-pigmented ciliary epithelial (h-NPE) cells
T4 sequence (P30411 1-391): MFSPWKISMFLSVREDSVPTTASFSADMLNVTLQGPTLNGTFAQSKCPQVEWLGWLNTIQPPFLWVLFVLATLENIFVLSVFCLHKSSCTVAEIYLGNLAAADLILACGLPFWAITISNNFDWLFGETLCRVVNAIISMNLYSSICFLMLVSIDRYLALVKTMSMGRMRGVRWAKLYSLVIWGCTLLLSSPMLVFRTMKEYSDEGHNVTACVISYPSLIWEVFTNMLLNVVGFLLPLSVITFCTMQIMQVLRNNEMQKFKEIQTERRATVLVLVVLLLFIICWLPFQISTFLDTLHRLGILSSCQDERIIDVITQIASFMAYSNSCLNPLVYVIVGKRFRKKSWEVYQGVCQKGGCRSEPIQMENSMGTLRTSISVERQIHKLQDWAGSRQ
The experiment in a line: Antagonism of FR-190997-induced [Ca2+]i mobilization in h-NPE cells. Format: cell-based. As to conditions: FR-190997 as the agonist, read-out: Antagonist Potency (Ki). Here is the method: as §1, §2

Experiment [6] concerns conscious ocular hypertensive cynomolgus monkey eyes. Description: IOP response in lasered (hypertensive) eyes of conscious cynomolgus monkeys, topical ocular. Type of experiment: in vivo. As to conditions: for % Change in IOP: Table 10, 300 μg topical ocular. Here is the method: Intraocular pressure (IOP) is determined with an Alcon Pneumatonometer (Alcon Laboratories, Inc., Fort Worth, Tex.) after light corneal anesthesia with 0.1% proparacaine. Right eyes are hypertensive as a result of laser trabeculoplasty. After a baseline IOP measurement, test compound is instilled in the right eyes only of 8-10 cynomolgus monkeys. Vehicle is instilled in the right eyes of 5-6 additional animals. Subsequent IOP measurements are taken at 1, 3, and 6 hours. IOP measurements are also taken on left eyes (normotensive and untreated) at each of these time points. The percent change in IOP from baseline is determined for each animal for every IOP measurement (Sharif et al. J. Ocular Pharmacol. Ther. 17: 305-317, 2001; May et al., J Pharmacol Exp Ther. 306: 301-309, 2003; Sharif et al. Invest. Ophthalmol. Vis. Res. 47: 4001-4010, 2006). Group mean and standard error of the mean (SEM) are calculated for each time point. […] In cases where the compound of invention has poor ocular bioavailability, the compound may need to be administered intracamerally or intravitreally in order to observe the IOP-lowering efficacy.
The IOP-lowering effect was slow to develop but significant IOP reduction was observed even 3 hours post-dosing with maximum ocular hypotension observed 16-48 hours post-dosing (Tables 6-8; FIGS. 3b-5).

Like-named read-outs stand apart in the source and are kept apart here.

A word on the Emax: it is the size of the effect at its maximum, as opposed to the concentration needed. In general, Ki refers to a measure of affinity in units of concentration, obtained from inhibition or displacement. What is called EC50 is the concentration giving half of the maximal effect.

As to `O=C(O)CCC/C=C\C[C@@H]1[C@@H](/C=C/[C@@H](O)COc2cccc(C(F)(F)F)c2)[C@H](O)C[C@@H]1O` (racemic) [fluprostenol, reference compound], the “production of endogenous prostaglandins (PGE2)” value in experiment [1] is reported as “stimulate the production of endogenous prostaglandins”.
As for `N=C(N)NCCC[C@H](N)C(=O)N1CCC[C@H]1C(=O)N1CCC[C@H]1C(=O)NCC(=O)N[C@@H](Cc1ccccc1)C(=O)N[C@@H](CO)C(=O)N1CCC[C@H]1C(=O)N[C@@H](Cc1ccccc1)C(=O)O` [Des-Arg^9-BK], the Emax in experiment [2] (h-CM cells, mean ± SEM) is 94%; in experiment [3] (h-NPE cells, mean ± SEM) it was 70%; in experiment [4] (h-TM cells, mean ± SEM), 112%.
Turning to `CNC(=O)c1ccc(/C=C/C(=O)NCC(=O)N(C)c2ccc(Cl)c(COc3cccc4ccc(C)nc34)c2Cl)cc1` [FR-165649, reference compound], the Ki in experiment [5] was 146 nM. The “modulation of IOP” value in experiment [6] (300 μg topically administered) is reported as “failed to modulate IOP”. Moreover, the “% Change in IOP” value is given as 1.0 ± 3.1% in experiment [6] (Dose 1/1 hr), 0.7 ± 3.5% in experiment [6] (Dose 1/3 hr), −6.2 ± 4.7% in experiment [6] (Dose 1/6 hr) and −4.0 ± 3.2% in experiment [6] (Dose 1/24 hr).
Take `N=C(N)NCCC[C@H](NC(=O)[C@H](Cc1ccccc1)NC(=O)[C@@H]1CCCN1C(=O)[C@H](CO)NC(=O)[C@H](Cc1ccccc1)NC(=O)CNC(=O)[C@@H]1C[C@@H](O)CN1C(=O)[C@@H]1CCCN1C(=O)[C@@H](N)CCCNC(=N)N)C(=O)O` [Hyp^3-BK, Arg-Pro-Hyp-Gly-Phe-Ser-Pro-Phe-Arg]: the maximum response (Emax) was determined as 105% in experiment [2], 93% in experiment [3] and 110% in experiment [4]. For the same molecule, the EC50 in experiment [3] was 6 ± 0.6 nM; in experiment [4], 0.9 ± 0.3 nM.
`N=C(N)NCCC[C@H](NC(=O)[C@H](Cc1ccccc1)NC(=O)[C@@H]1CCCN1C(=O)[C@H](CO)NC(=O)[C@H](Cc1ccccc1)NC(=O)CNC(=O)[C@@H]1CCCN1C(=O)[C@@H]1CCCN1C(=O)[C@H](CCCNC(=N)N)NC(=O)[C@@H](N)CCCCN)C(=O)O` [Lys-BK]: the Emax in experiment [2] (h-CM cells, mean ± SEM) was 115%; in experiment [3] (h-NPE cells, mean ± SEM) it was 90%; in experiment [4] (h-TM cells, mean ± SEM) it was 115%.
With `CSCC[C@H](N)C(=O)N[C@@H](CCCCN)C(=O)N[C@@H](CCCNC(=N)N)C(=O)N1CCC[C@H]1C(=O)N1CCC[C@H]1C(=O)NCC(=O)N[C@@H](Cc1ccccc1)C(=O)N[C@@H](CO)C(=O)N1CCC[C@H]1C(=O)N[C@@H](Cc1ccccc1)C(=O)N[C@@H](CCCNC(=N)N)C(=O)O` [Met-Lys-BK], the Emax in experiment [2] (h-CM cells, mean ± SEM) came out at 110%; in experiment [3] (h-NPE cells, mean ± SEM), 77%; in experiment [4] (h-TM cells, mean ± SEM) it was 111%.

The values above are taken from patent US8173668B1 (Alcon Research, Ltd., priority 2007, dated 2012).
